Data taken from PMC8913831 (Scientific Reports, 2022).

Target: T1, CbCBP (cellobiose phosphorylase) (Caldicellulosiruptor bescii, UniProt A0ABY1SBL4)
T1 construct: gene SAMN05216240_2653; C-terminal (His)6 tag, pET20b, E. coli BL21 CodonPlus-RIL; 94 kDa on SDS-PAGE, about 200 kDa native (homodimer); GH94
T1 sequence (A0ABY1SBL4 1-811): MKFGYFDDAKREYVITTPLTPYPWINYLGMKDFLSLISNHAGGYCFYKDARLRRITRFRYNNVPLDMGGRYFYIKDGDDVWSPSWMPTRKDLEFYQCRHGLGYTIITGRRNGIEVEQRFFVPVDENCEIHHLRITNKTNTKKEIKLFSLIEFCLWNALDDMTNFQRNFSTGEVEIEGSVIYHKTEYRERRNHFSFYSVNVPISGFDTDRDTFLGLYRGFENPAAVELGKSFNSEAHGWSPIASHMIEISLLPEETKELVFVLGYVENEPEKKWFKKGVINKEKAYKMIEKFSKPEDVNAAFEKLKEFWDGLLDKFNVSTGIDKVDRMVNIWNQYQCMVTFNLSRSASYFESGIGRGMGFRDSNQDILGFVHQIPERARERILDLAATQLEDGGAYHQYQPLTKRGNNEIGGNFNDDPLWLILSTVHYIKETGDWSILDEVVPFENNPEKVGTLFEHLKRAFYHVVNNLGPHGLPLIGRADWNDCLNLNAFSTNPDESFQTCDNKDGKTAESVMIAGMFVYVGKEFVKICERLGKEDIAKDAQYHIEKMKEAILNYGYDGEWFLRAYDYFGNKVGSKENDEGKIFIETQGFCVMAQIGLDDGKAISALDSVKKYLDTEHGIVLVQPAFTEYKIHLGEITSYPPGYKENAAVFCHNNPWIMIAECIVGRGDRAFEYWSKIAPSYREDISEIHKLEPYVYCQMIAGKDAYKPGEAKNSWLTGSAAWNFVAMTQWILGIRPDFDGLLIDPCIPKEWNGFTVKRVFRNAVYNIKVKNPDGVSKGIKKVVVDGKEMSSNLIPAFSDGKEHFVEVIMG
Test: initial velocity, D-glucose release (glucose oxidase-peroxidase), fit to ordered Bi Bi equation
Assay type: biochemical
Conditions: phosphorolysis; substrate constant of the ordered Bi Bi rate equation with A = cellobiose, not an inhibitor constant; text states Pi binds first; MES-NaOH pH 7.0; 75 °C in Methods, 70 °C in Results
Description: initial velocity, D-glucose release (glucose oxidase-peroxidase), fit to ordered Bi Bi equation on CbCBP (cellobiose phosphorylase)

## OC[C@H]1O[C@@H](O[C@H]2[C@H](O)[C@@H](O)C(O)O[C@@H]2CO)[C@H](O)[C@@H](O)[C@@H]1O (stereo partly shown) [cellobiose]
  Ki^A: 3.3 mM
